Our source for the IC50, EC50 and melting point values is patent US20240043450A1, “NEW COMPOUND” (JANSSEN PHARMACEUTICA NV, priority 2020, published 2024).

As usually defined, the IC50 is the concentration needed to halve the response being measured. A word on the EC50: it is the concentration needed to bring the measured effect to its halfway point. By melting point is commonly meant the temperature of the solid-liquid transition.

Structures are written as SMILES. Some results are limits rather than exact numbers.

One data set has as its target T1, NLRP3 (Homo sapiens, UniProt Q96P20).
T1 construct: human peripheral blood mononuclear cells (PBMCs) were isolated from blood; endogenous in cells; host or cells: primary human PBMCs from healthy donors
In words: PBMC assay: IL-1β levels in supernatant of LPS-stimulated human PBMCs (MSD). The format is cell-based. The following applies: 30 min compound pre-incubation, 100 ng/ml LPS for 6 hrs, IL-1β in supernatant, read-out: IL-1B IC50. Here is the method: The activity of a compound according to the present invention can be assessed by in vitro methods.
Peripheral venous blood was collected from healthy individuals and human peripheral blood mononuclear cells (PBMCs) were isolated from blood by Ficoll-Histopaque (Sigma-Aldrich, A0561) density gradient centrifugation. After isolation, PBMCs were stored in liquid nitrogen for later use. Upon thawing, PBMC cell viability was determined in growth medium (RPMI media supplemented with 10% fetal bovine serum, 1% Pen-Strep and 1% L-glutamine). […] PBMCs were added at a density of 7.5×10^4 cells per well and incubated for 30 min in a 5% CO2 incubator at 37° C. LPS stimulation was performed by addition of 100 ng/ml LPS (final concentration, Invivogen, tlrl-smlps) for 6 hrs followed by collection of cellular supernatant and the analysis of IL-1β […] and TNF cytokines levels […] via MSD technology according to manufacturers' guidelines (MSD, K15A0H).

In the next data set the test system is TNF. In words: PBMC assay: TNF cytokine levels in supernatant of LPS-stimulated human PBMCs (MSD). The format is cell-based. The following applies: 30 min compound pre-incubation, 100 ng/ml LPS for 6 hrs. The method, then: Peripheral venous blood was collected from healthy individuals and human peripheral blood mononuclear cells (PBMCs) were isolated from blood by Ficoll-Histopaque (Sigma-Aldrich, A0561) density gradient centrifugation. After isolation, PBMCs were stored in liquid nitrogen for later use. Upon thawing, PBMC cell viability was determined in growth medium (RPMI media supplemented with 10% fetal bovine serum, 1% Pen-Strep and 1% L-glutamine). Compounds were spotted in a 1:3 serial dilution in DMSO and diluted to the final concentration in 30 μl medium in 96 well plates (Falcon, 353072). PBMCs were added at a density of 7.5×10^4 cells per well and incubated for 30 min in a 5% CO2 incubator at 37° C. LPS stimulation was performed by addition of 100 ng/ml LPS (final concentration, Invivogen, tlrl-smlps) for 6 hrs followed by collection of cellular supernatant and the analysis of IL-1β […] and TNF cytokines levels […] via MSD technology according to manufacturers' guidelines (MSD, K15A0H).
The IC50 values (for IL-1β) and EC50 values (TNF) were obtained on compounds of the invention/examples, and are depicted in the following table: […]

T1 sequence (Q96P20 whole entry): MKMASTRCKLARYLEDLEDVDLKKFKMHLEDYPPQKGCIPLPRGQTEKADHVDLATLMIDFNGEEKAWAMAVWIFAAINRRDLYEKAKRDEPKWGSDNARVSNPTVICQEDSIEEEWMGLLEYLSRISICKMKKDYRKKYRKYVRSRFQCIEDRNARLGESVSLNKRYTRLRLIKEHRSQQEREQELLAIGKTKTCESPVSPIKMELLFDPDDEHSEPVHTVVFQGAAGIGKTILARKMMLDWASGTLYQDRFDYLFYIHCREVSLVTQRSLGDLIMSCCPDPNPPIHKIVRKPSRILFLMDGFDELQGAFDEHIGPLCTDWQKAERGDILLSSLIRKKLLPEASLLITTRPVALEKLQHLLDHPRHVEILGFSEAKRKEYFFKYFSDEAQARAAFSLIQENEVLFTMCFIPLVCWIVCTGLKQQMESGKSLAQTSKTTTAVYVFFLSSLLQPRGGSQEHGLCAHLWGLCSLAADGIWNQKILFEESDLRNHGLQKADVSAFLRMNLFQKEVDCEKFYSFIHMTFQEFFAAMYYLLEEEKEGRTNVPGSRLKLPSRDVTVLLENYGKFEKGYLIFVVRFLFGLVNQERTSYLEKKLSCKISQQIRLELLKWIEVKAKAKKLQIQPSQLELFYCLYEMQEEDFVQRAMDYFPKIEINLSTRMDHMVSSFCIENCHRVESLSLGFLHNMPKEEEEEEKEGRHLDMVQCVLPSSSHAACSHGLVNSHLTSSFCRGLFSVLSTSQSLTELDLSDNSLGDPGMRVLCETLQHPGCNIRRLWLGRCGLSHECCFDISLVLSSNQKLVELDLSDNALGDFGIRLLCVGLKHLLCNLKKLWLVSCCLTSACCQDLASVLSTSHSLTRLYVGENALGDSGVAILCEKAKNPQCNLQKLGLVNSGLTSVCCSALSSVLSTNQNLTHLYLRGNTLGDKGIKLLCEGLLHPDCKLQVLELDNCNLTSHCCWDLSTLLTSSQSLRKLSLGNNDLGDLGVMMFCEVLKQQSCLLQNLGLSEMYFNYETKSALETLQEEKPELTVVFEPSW

As to `Cc1nnc2n1C[C@H](NC(=O)Cn1nc(C(C)C)c3nc(C4CC4)sc3c1=O)CC2` (single isomer, unassigned) [F-32], the IC50 at NLRP3 came out at 6600 nM. In addition, the EC50 in the data set on TNF (Homo sapiens, PBMC) was over 20000 nM.
Regarding `Cc1nnc2n1C[C@@H](NC(=O)Cn1nc(C(C)C)c3nc(C4CC4)sc3c1=O)CC2` (single isomer, unassigned) [F-33], on NLRP3, the 50% inhibitory concentration (IC50) worked out at 300 nM. This compound registered an EC50 in the data set with TNF (Homo sapiens, PBMC) of over 20000 nM.
On to `CC(C)c1nn(CC(=O)Nc2ccncn2)c(=O)c2sc(C3CC3)nc12` [F-1, 2-(2-cyclopropyl-4-isopropyl-7-oxo-thiazolo[4,5-d]pyridazin-6-yl)-N-pyrimidin-4-yl-acetamide], for which the concentration for half-maximal inhibition (IC50) at NLRP3 was found to be 105 nM. The same compound yielded an EC50 with TNF (Homo sapiens, PBMC) of 19700 nM.
The corresponding values for `CC(C)c1nc2c(C(C)C)nn(CC(=O)Nc3ccncn3)c(=O)c2s1` [F-2] are 105 nM and 5590 nM.
Consider `CC(C)c1nc2c(C(C)C)nn(CC(=O)Nc3ccnnc3)c(=O)c2s1` [F-3], for which the IC50 at NLRP3 was found to be 181 nM. Besides, in the data set on TNF (Homo sapiens, PBMC), the response was half-maximal at 7180 nM (EC50).
On to `CC(C)c1nc2c(C(C)C)nn(CC(=O)Nc3ccc4nncn4c3)c(=O)c2s1` [F-4], for which the IC50 at NLRP3 is 50 nM. In addition, the EC50 in the data set on TNF (Homo sapiens, PBMC) was found to be 11500 nM.
Taken in the same sequence, the figures for `CC(C)c1nc2c(C(C)C)nn(CC(=O)N[C@H]3C[C@@](C)(O)C3)c(=O)c2s1` [F-5] were 156 nM and over 20000 nM.
In the case of `CC(C)c1nc2c(N(C)C)nn(CC(=O)N[C@H]3C[C@@](C)(O)C3)c(=O)c2s1` [F-6], the IC50 at NLRP3 is 258 nM. In addition, the EC50 in the data set with TNF (Homo sapiens, PBMC) is over 20000 nM.
As for `CC(C)c1nc2c(N(C)C)nn(CC(=O)Nc3ccc4nncn4c3)c(=O)c2s1` [F-7], the IC50 at NLRP3 is 169 nM. This compound also gave an EC50 with TNF (Homo sapiens, PBMC) of over 20000 nM.
In the case of `CCc1nc2c(C(C)C)nn(CC(=O)Nc3ccncn3)c(=O)c2s1` [F-8, 2-(2-ethyl-4-isopropyl-7-oxo-thiazolo[4,5-d]pyridazin-6-yl)-N-pyrimidin-4-yl-acetamide], the melting point came out at 186 °C. For the same compound, the IC50 at NLRP3 was 181 nM. Further, the EC50 in the data set with TNF (Homo sapiens, PBMC) came to 9200 nM.
For the compound `CCc1nc2c(C(C)C)nn(CC(=O)Nc3ccc4nncn4c3)c(=O)c2s1` [F-9], the melting point stood at 284.6 °C. In addition, on NLRP3, the IC50 amounted to 95 nM. The same compound displayed an EC50 with TNF (Homo sapiens, PBMC) of 18000 nM.
`CCc1nc2c(C(C)C)nn(CC(=O)Nc3ccnnc3)c(=O)c2s1` [F-10] displayed a melting point of 186.5 °C. Besides, at NLRP3, the half-inhibitory concentration (IC50) is 274 nM. In the data set on TNF (Homo sapiens, PBMC), a half-maximal response (EC50) required 18600 nM.
On to `CCc1nc2c(C(C)C)nn(CC(=O)N[C@H]3C[C@@](C)(O)C3)c(=O)c2s1` [F-11], for which the melting point was 159.2 °C. The IC50 at NLRP3 amounted to 351 nM. This compound also gave an EC50 with TNF (Homo sapiens, PBMC) of 19400 nM.
Turning to `CC(C)c1nn(CC(=O)Nc2ccc3nncn3c2)c(=O)c2sc(C3CC3)nc12` [F-12], the IC50 at NLRP3 was found to be 23 nM. Besides, the EC50 with TNF (Homo sapiens, PBMC) turned out to be 4990 nM.
Consider `CC(C)c1nn(CC(=O)Nc2ccnnc2)c(=O)c2sc(C3CC3)nc12` [F-13], for which the melting point is 195.2 °C. For the same compound, on NLRP3, the concentration for half-maximal inhibition (IC50) is 100 nM. Moreover, in the data set on TNF (Homo sapiens, PBMC), a half-maximal response (EC50) required 6590 nM.
Consider `CC(C)c1nn(CC(=O)N[C@H]2C[C@@](C)(O)C2)c(=O)c2sc(C3CC3)nc12` [F-14], for which the melting point was found to be 190.5 °C. Besides, the IC50 at NLRP3 came out at 55 nM. In addition, a half-maximal response in the data set with TNF (Homo sapiens, PBMC) (EC50) required 18200 nM.
`CC(C)c1nn(CC(=O)Nc2ccc3c(c2)[nH]c(=O)n3C)c(=O)c2sc(C3CC3)nc12` [F-15]: the IC50 at NLRP3 came out at 26 nM. This compound came in with a concentration giving a half-maximal response (EC50) in the data set on TNF (Homo sapiens, PBMC) of 7900 nM.
`CC(C)c1nn(CC(=O)Nc2ccc(=O)n(C)n2)c(=O)c2sc(C3CC3)nc12` [F-16] had a melting point of 233.3 °C. In addition, the IC50 on NLRP3 is 81 nM.
The compound `CC(C)c1nn(CC(=O)Nc2ccn3cnnc3c2)c(=O)c2sc(C3CC3)nc12` [F-17] registered a melting point of 206 °C. A half-maximal effect with TNF (Homo sapiens, PBMC) (EC50) was put at 12500 nM.
`CCNc1nc2c(C(C)C)nn(CC(=O)N[C@H]3C[C@@](C)(O)C3)c(=O)c2s1` [F-18] came in with a melting point of 216.6 °C. In addition, the IC50 at NLRP3 is 128 nM. The same compound showed a concentration giving a half-maximal response (EC50) with TNF (Homo sapiens, PBMC) of over 20000 nM.
As to `CC(C)c1nn(CC(=O)Nc2ccc3nncn3c2)c(=O)c2sc(C3CC3(F)F)nc12` (centres unmarked) [F-20], the IC50 on NLRP3 was 100 nM. Besides, in the data set with TNF (Homo sapiens, PBMC), the EC50 was over 20000 nM.
For `CC(C)c1nn(CC(=O)N[C@H]2C[C@@](C)(O)C2)c(=O)c2sc(C(F)(F)F)nc12` [F-21], the melting point was 181.4 °C. For the same compound, the 50% inhibitory concentration (IC50) at NLRP3 came to 469 nM. Moreover, the EC50 in the data set with TNF (Homo sapiens, PBMC) is over 20000 nM.
In the case of `CC(C)c1nn(CC(=O)Nc2ccc3nncn3c2)c(=O)c2sc(C(F)(F)F)nc12` [F-22], the melting point came out at 261.8 °C. Moreover, the IC50 on NLRP3 was determined as 332 nM. Also, the EC50 in the data set on TNF (Homo sapiens, PBMC) was over 20000 nM.
For `CC(C)c1nn(CC(=O)Nc2ccc3nncn3c2)c(=O)c2sc(C(C)(F)F)nc12` [F-23], the IC50 at NLRP3 was determined as 89 nM. Also, the EC50 with TNF (Homo sapiens, PBMC) was over 20000 nM.
In turn, `CC(C)c1nn(CC(=O)Nc2ccc3nncn3c2)c(=O)c2sc(C3COC3)nc12` [F-24] returned a melting point of 151.3 °C. The IC50 on NLRP3 was 567 nM. The compound further showed an EC50 with TNF (Homo sapiens, PBMC) of over 20000 nM.
The compound `Cn1nc(NC(=O)Cn2nc(C3CC3)c3nc(C4CC4)sc3c2=O)ccc1=O` [F-25] showed a melting point of 219.9 °C. Also, the IC50 at NLRP3 is 715 nM. In addition, in the data set with TNF (Homo sapiens, PBMC), the EC50 is about 12600 nM.
`Cc1nnc2n1CC(NC(=O)Cn1nc(C(C)C)c3nc(C4CC4)sc3c1=O)CC2` (centres unmarked) [F-31]: the 50% inhibitory concentration (IC50) at NLRP3 worked out at 407 nM. Also, the EC50 in the data set with TNF (Homo sapiens, PBMC) is over 20000 nM.
As to `CC(C)c1nn(CC(=O)Nc2ccc3nccn3c2)c(=O)c2sc(C3CC3)nc12` [F-36], on NLRP3, the IC50 turned out to be 72 nM. In the data set on TNF (Homo sapiens, PBMC), this compound came in with an EC50 of 15900 nM.
Compound `CC(C)c1nn(CC(=O)Nc2ccn3cnnc3c2)c(=O)c2sc(C3CC3)nc12` [F-40] registered a melting point of 299.1 °C. This compound also yielded an EC50 with TNF of over 20000 nM.
Take `CC(C)c1nn(CC(=O)Nc2ccc3nc(C#N)cn3c2)c(=O)c2sc(C3CC3)nc12` [F-42]: the IC50 at NLRP3 was 188 nM. For the same compound, the EC50 in the data set on TNF (Homo sapiens, PBMC) is over 20000 nM.
In the case of `CC(C)c1nn(CC(=O)Nc2cnc3ccnn3c2)c(=O)c2sc(C3CC3)nc12` [F-44], the IC50 on NLRP3 is 2310 nM. This compound also registered an EC50 in the data set on TNF (Homo sapiens, PBMC) of over 20000 nM.
For `CC(C)c1nn(CC(=O)Nc2ccn3c(F)cnc3c2)c(=O)c2sc(C3CC3)nc12` [F-47], on NLRP3, the IC50 was 1240 nM. In addition, the EC50 with TNF (Homo sapiens, PBMC) is about 19600 nM.
For `CC(C)c1nn(CC(=O)Nc2ccc3nnc(Cl)n3n2)c(=O)c2sc(C3CC3)nc12` [F-51], the IC50 at NLRP3 came out at 286 nM. The concentration for a half-maximal effect (EC50) in the data set on TNF (Homo sapiens, PBMC) is over 20000 nM.
Regarding `CC(C)c1nn(CC(=O)Nc2ccc3nncn3n2)c(=O)c2sc(C(C)(F)F)nc12` [F-52, N-([1,2,4]triazolo[4,3-b]pyridazin-6-yl)-2-(2-(1,1-difluoroethyl)-4-isopropyl-7-oxothiazolo[4,5-d]pyridazin-6(7H)-yl)acetamide], the IC50 at NLRP3 was determined as 56 nM. In the data set on TNF (Homo sapiens, PBMC), this compound yielded an EC50 of 18600 nM.
`CC(C)c1nn(CC(=O)Nc2ccc3nc(C(F)(F)F)cn3c2)c(=O)c2sc(C3CC3)nc12` [F-58]: the half-inhibitory concentration (IC50) at NLRP3 amounted to 224 nM. This compound returned an EC50 in the data set with TNF (Homo sapiens, PBMC) of 19800 nM.
`CC(C)c1nn(CC(=O)Nc2cc(C#N)c3nncn3c2)c(=O)c2sc(C3CC3)nc12` [F-60, N-(8-cyano-[1,2,4]triazolo[4,3-a]pyridin-6-yl)-2-(2-cyclopropyl-4-isopropyl-7-oxothiazolo[4,5-d]pyridazin-6(7H)-yl)acetamide]: the IC50 on NLRP3 came to 316 nM. Besides, in the data set on TNF (Homo sapiens, PBMC), the 50% effective concentration (EC50) was over 20000 nM.
